Laboratory results from patent publication US8293240B2, “Method of treating drug-resistant cancer” (The Regents of the University of Colorado, priority 2004, dated 2012).

Tests used:
[1] = system: A-204 human rhabdomyosarcoma cells; assay: cell surface UCP2 expression on A-204 cells; assay type: cell-based; settings: A-204, 24, 48, & 72 hours, FIG. 26
Experimental: (§1) Cell Surface Staining. Non-permeabilized cells were stained with antibodies to the cell surface receptors Fas (CD95) (Pharmingen) or with antibodies to uncoupling proteins (anti-UCP2 antibody) (Alpha Diagnostic International). Antibodies for both the isotype control and actual stain were added to the cell suspension, mixed, and then placed on ice for and incubation of 25 minutes in the dark. Subsequently the cells were centrifuged at 300×g for 5 minutes and the supernatant removed. The cells were washed one time with 100 μL of PBS/2.5% FBS and then transferred into flow cyotmetric tubes containing 500 μL of PBS/2.5% FBS for analysis.
A204 human rhabdomyosarcoma cells were cultured at a concentration of 0.5 to 1 million cells per ml. Cells were untreated or treated with etomoxir at concentrations indicated in FIG. 24 for 24, 48, & 72 hours. Cells were harvested and analyzed by flow cytometry. Dot plots are shown in FIG. 24 as functions of live versus dead cells. […] Five thousand cells were assessed for forward scatter (FS), as a function of cell size, versus side scatter (SS), as a function of cellular granularity. […]
Cells were untreated or treated with etomoxir at the concentration indicated in FIG. 26 at the indicated concentration for 24, 48, & 72 hours. Cells were harvested, stained with fluorochrome conjugated with anti-UCP2 antibody and analyzed by flow cytometry.

[2] = system: drug resistant L1210/DDP cells; assay: cell-surface Fas expression by flow cytometry, L1210/DDP; assay type: cell-based
Experimental: as §1
Geometric Mean Fluorescence. When analyzing data on Cell Quest software, a geometric mean value will be given for each histogram plotted. Once the stained sample was plotted against the control (isotype or unstained), geometric mean fluorescence values were obtained for both histogram peaks. The stained control sample value was subtracted from sample to identify the actual fluorescence of the stained sample over that of the control.
Drug sensitive L1210 cells and drug resistant L1210/DDP cells were cultured with etomoxir for 24 hours (Tx indicates treatment with etomoxir). The level of cell-surface Fas was determined using fluorochrome conjugated anti-Fas antibodies and flow cytometry. The Fas levels are measured relative to a control for staining artifacts. […]

B16F1 melanoma cells = assay: mitochondrial membrane potential (Mitotracker Red) in B16F1 melanoma cells; assay type: cell-based, mouse; settings: B16F1, 48 hours, FIG. 20
Experimental: Metabolic Activity Assay. Cells were prepared as previously described. The specific metabolic dye was added and mixed into the cell suspension. This plate was then placed into the 37° incubator for a 20-minute incubation. After incubation, the cells were centrifuged at 300×g for 5 minutes, and the supernatant was removed. The cells were then washed once with PBS/2.5% FBS and transferred into flow cytometric tubes containing 500 μL of PBS/2.5% FBS for analysis.
MitoTracker Red CM-H2XROS (Molecular Probes). One vial of MitoTracker Red provides 10 tests and contains 50 μg. This is unstable and can't be stored. Therefore, when each vial was opened, 43 μL of Dimethysulfoxide (DMSO) were added. […]
B16F1 melanoma cells were cultured at a concentration of 0.5 to 1 million cells per ml. Cells were harvested and analyzed by flow cytometry. […] Five thousand cells were assessed for forward scatter (FS), as a function of cell size, versus side scatter (SS), as a function of cellular granularity. […]
B16F1 melanoma cells of Example 12 were untreated or treated with etomoxir at the indicated concentrations for 48 hours. Cells were harvested, stained with Mitotracker Red (Molecular Probes) as described in Materials and Methods, and analyzed by flow cytometry. The value of Mitotracker Red was then calculated as described in Materials and Methods.

[3] = system: HL60 MDR human leukemia cells; assay: percent death of HL60 MDR cells (flow cytometry, live versus dead); assay type: cell-based
Experimental: Dot plots as a function of live versus dead cells. The cells were cultured at a concentration of 0.5 to 1 million cells per ml. Cells were untreated or treated with or 2-deoxy-D-glucose and/or etomoxir and/or antibodies to UCP2 and used at dilutions or concentrations as indicated on the figure. The cells were cultured in the presence or absence of etomoxir at 100 micrograms/ml for 24 hours followed by treatment with antibody as indicated for an additional 24 or 48 hours (i.e. totals of 48 hours or 72 hours respectively). Cells were harvested and analyzed by flow cytometry. Each dot on the dot plot represents one cell. Five thousand cells were assessed for forward scatter (FS), as a function of cell size, versus side scatter (SS), as a function of cellular granularity. The upper elipse represents live cells by these criterion and the lower elipse in each dot plot represents the dead cells.
Statistical Analysis, Percents, and Geometric Mean Values Percents. Gating is a tool provided by Cell Quest software and allows for the analysis of a certain population of cells. Gating around both the live and dead cell populations gave a percent of the cell numbers that was in each population. After the gates were drawn, a percent value of dead cells was calculated by taking the number of dead cells divided by the number of total cells and multiplying by one hundred.
HL60 MDR human leukemia cells were cultured as described above under “Materials and Methods”. Cells were untreated or treated with etomoxir, with 2-deoxy-D-glucose, or with a combination of etomoxir and 2-deoxy-D-glucose, at concentrations indicated in FIG. 27 for 24 hours. Cells were harvested and analyzed by flow cytometry.
Referring to FIGS. 31 and 32, HL60 MDR cells, cultured as described in Example 21, were untreated or treated with etomoxir, with 2-deoxy-D-glucose, or with a combination of etomoxir and 2-deoxy-D-glucose, at concentrations indicated in FIG. 31 for 48 hours. Cells were harvested and analyzed by flow cytometry.
Referring to FIGS. 35 and 36, HL60 MDR cells, cultured as described in Example 21, were treated with anti-UCP2 antibody and otherwise untreated or treated simultaneously with etomoxir, 2-deoxy-D-glucose, or both, at concentrations indicated in FIG. 35 for 48 hours. Cells were harvested and analyzed by flow cytometry.

Which results are given for `CCOC(=O)C1(CCCCCCOc2ccc(Cl)cc2)CO1` (stereo not drawn) [etomoxir, 2-(6-(4-chlorophenoxy)-hexyl)-oxirane-2-carboxylic acid ethyl ester]?
cell surface UCP2 expression in the live cells [1]: time dependent “fold” increases; cell-surface Fas expression ([2]; L1210/DDP, cultured with etomoxir for 24 hours): significant increases in cell surface Fas; cell surface Fas, combination with methotrexate ([2]; methotrexate-treated L1210 DDP, FIG. 8): promotes increases in cell surface Fas; mitochondrial membrane potential as measured by Mitotracker Red (B16F1 melanoma cells): increase in mitochondrial membrane potential; percent of cell deaths ([3]; HL60 MDR cells after 24 hours): 11%; percent of cell deaths ([3]; HL60 MDR cells after 48 hours): 14%
